In patent US11667961B2, “Intercalating fluorescent dyes for labelling nucleic acids and preparation method thereof” (Bioacts Corporation, priority 2020, dated 2023):
Entries after “also recorded” stand apart in the source; their conditions may differ.

Tests used:
[1] = test system: double-stranded DNA (cDNA extracted from HeLa cells, b-actin primer); assay: Compound analysis through real-time PCR by intercalating method (double-stranded DNA binding dyes); assay type: biochemical; conditions: for fluorescence signal / fluorescence intensity during DNA synthesis (FIG. 1): 1 uL of 200 uM dye in 20 uL reaction, fluorescence wavelength of 497 nm detected; for Cq value (FIG. 3): 45 cycles, HeLa cDNA template
Protocol: Compounds 8, 9, 10, 15, 16, and 17 were dissolved in dimethyl sulfoxide to prepare 5 mM of a stock solution. The prepared stock solution was diluted in a Tris-EDTA buffer (pH 7.5) and prepared at a concentration of 200 uM.
For Reference material 1, 10,000× of the stock solution was diluted to a concentration of 20× through a Tris-EDTA buffer (pH 7.5). For Reference material 2, 20,000× of the stock solution was diluted to a concentration of 20× through a Tris-EDTA buffer (pH 7.5).
Reference materials 1 (Evagreen) and 2 (Invitrogen Sybr Green) and Compounds 8, 9, 10, 15, 16, and 17 were compared and verified by an intercalating method using a double-stranded DNA binding dyes through real-time PCR. cDNA extracted from HeLa cells was used, and b-actin (Forward 5′-CATCGAGCACGGCATCGTCA-3′, Reverse 5′-TAGCACAGCCTGGATAGCAAC-3′) was used as a primer. Real-time PCR reaction was performed using a CFX96 touch real-time PCR detection system (BIO-RAD). The PCR mixture consisted of a total 20 uL of reaction solution containing 1 uL of a forward primer, 1 uL of a reverse primer, 10 uL of a PCR master mix (TAKARA), 1 uL of a reference material and each compound (Compounds 8, 9, 10, 15, 16, 17), and 1 uL of template cDNA. PCR conditions were as follows: (a) In a pre-denaturing step, 1 minute at 95° C. (b) 45 cycles are configured as a cycle consisting of at 95° C. for 15 seconds, 58° C. for 30 seconds and 72° C. for 30 seconds, and a fluorescence wavelength of 497 nm was detected in a cycle of 30 seconds at 72° C.

[2] = Stability analysis: storage in incubator at 60° C. for 3 days, then real-time PCR fluorescence; assay type: physicochemical; conditions: for change in fluorescence intensity after reaction at 60° C. for 3 days (FIGS. 11-14): stored in incubator at 60° C. for 3 days, real-time PCR for each template concentration
Protocol: Stability analysis was performed by storing Reference materials 1 (Evagreen) and 2 (Invitrogen Sybr Green) and Compound 16 in an incubator at 60° C. The three materials were stored in an incubator at 60° C. for 3 days, and the fluorescence signals for each template concentration were analyzed by real-time PCR analysis as in (1) above, and the PCR product was electrophoresed to analyze whether normal DNA synthesis was achieved. After real-time-PCR, synthetic DNA and a 6× Loading dye (BioActs) were mixed, and then electrophoresis was performed for 35 minutes on a 2% agarose gel (Simga-aldrich).

change in fluorescence intensity after reaction at 60° C. for 3 days (FIGS. 11-14) [2]	SMILES	fluorescence signal / fluorescence intensity during DNA synthesis (FIG. 1) [1]	Cq value (FIG. 3) [1]	stability compared with Reference material 2 ([2]; 60° C. for 3 days)	Cq value relative to Reference material 1 (FIG. 6) ([1]; compared with Evagreen)	fluorescence intensity relative to Reference materials 1 and 2 (FIG. 4) ([1]; compared with Evagreen and Sybr Green at 20×)
–	CCCCCCCCNC(=O)CCCN(C)C1=C/C(=C\c2oc3ccccc3[n+]2C)c2ccccc2N1c1ccccc1 [Compound 17]	emit visible fluorescence; also recorded: not much strong	hardly confirmed	–	–	–
no significant change	CN(C)CCCNC(=O)CCCN(C)C1=C/C(=C\c2sc3ccccc3[n+]2C)c2ccccc2N1c1ccccc1 [Compound 16]	emit visible fluorescence; also recorded: very strong	fastest	more stable material than Reference material 2	faster than that of Reference material 1	two times higher
–	CCCCCCCCNC(=O)CCCN(C)C1=C/C(=C\c2oc3ccccc3[n+]2C)c2ccccc2N1c1ccccc1 [Compound 10]	not strongly observed	not much confirmed	–	–	–
–	C=CS(=O)(=O)CCNC(=O)CCCN(C)C1=C/C(=C\c2sc3ccccc3[n+]2C)c2ccccc2N1c1ccccc1 [Compound 15]	emit visible fluorescence; also recorded: not much strong	–	–	–	–
–	C=CS(=O)(=O)CCNC(=O)CCCN(C)C1=C/C(=C\c2oc3ccccc3[n+]2C)c2ccccc2N1c1ccccc1 [Compound 8]	not strongly observed	not much confirmed	–	–	–
–	CN(C)CCCNC(=O)CCCN(C)C1=C/C(=C\c2oc3ccccc3[n+]2C)c2ccccc2N1c1ccccc1 [Compound 9]	not strongly observed	not much confirmed	–	–	–
decreased by about half	CCCN(CCCN(C)C)c1cc(/C=C2/Sc3ccccc3N2C)c2ccccc2[n+]1-c1ccccc1 [Reference material 2, reference compound]	–	–	–	–	–
